# Measurements published in EP2970215B1, “PYRROLIDINE DERIVATIVES, PHARMACEUTICAL COMPOSITIONS CONTAINING THEM, AND THEIR USE IN THERAPY” (AbbVie Deutschland GmbH & Co. KG, priority 2013, dated 2014).
# pKi: −log10 of the molar value.
# Target: T1, human GlyT1c transporter (Homo sapiens, UniProt P48067)
# T1 construct: expressed in transfected cells; host or cells: CHO cells (recombinant; line hGlyT1c_5_CHO is named for the uptake assay)
# T1 sequence (P48067 1-706): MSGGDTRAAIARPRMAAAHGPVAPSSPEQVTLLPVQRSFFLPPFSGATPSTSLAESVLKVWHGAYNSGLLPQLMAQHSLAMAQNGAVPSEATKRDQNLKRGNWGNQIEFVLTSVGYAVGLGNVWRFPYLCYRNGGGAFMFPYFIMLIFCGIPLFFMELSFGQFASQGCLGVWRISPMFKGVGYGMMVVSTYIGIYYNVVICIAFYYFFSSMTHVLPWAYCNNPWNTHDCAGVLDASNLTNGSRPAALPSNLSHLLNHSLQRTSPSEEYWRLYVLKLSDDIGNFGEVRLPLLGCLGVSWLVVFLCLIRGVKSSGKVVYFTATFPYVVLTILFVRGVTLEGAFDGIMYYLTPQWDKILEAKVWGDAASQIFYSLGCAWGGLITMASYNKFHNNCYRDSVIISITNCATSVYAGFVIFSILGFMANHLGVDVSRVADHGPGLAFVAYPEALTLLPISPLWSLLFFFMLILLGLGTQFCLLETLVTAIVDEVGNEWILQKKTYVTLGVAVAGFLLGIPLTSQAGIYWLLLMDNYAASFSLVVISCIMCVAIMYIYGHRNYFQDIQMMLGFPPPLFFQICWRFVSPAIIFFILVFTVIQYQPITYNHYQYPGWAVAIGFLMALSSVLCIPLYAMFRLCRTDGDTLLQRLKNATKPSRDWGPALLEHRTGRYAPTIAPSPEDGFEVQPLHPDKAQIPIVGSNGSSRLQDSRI
# Assay: Radioligand binding assay using recombinant CHO cell membranes expressing human GlyT1
# Settings: radioligand binding to human GlyT1c transporter-expressing membranes
# From the text: 2. Radioligand binding assays using recombinant CHO cell membranes expressing human GlyT1: […]
row,pKi,Compound
1,≥ 5.00,"Cn1cnc(S(=O)(=O)N2C[C@@H](NCc3ccccc3)[C@H](c3ccc(F)cc3)C2)c1 (relative stereo) [Example 148, trans-N-benzyl-4-(4-fluorophenyl)-1-[(1-methyl-1H-imidazol-4-yl)sulfonyl]pyrrolidin-3-amine]"
2,≥ 7.00,"Cn1cnc(S(=O)(=O)N2C[C@@H](NCc3ccc(C(F)(F)F)c(Cl)c3)[C@H](c3ccc(F)cc3)C2)c1 (relative stereo) [Example 151, trans-N-[3-chloro-4-(trifluoromethyl)benzyl]-4-(4-fluorophenyl)-1-[(1-methyl-1H-imidazol-4-yl)sulfonyl]pyrrolidin-3-amine]"
3,≥ 6.00,"Cn1cnc(S(=O)(=O)N2C[C@@H](NCc3cccc(C#N)c3)[C@H](c3ccc(F)cc3)C2)c1 (relative stereo) [Example 152, 3-[({trans-4-(4-fluorophenyl)-1-[(1-methyl-1H-imidazol-4-yl)sulfonyl]pyrrolidin-3-yl}amino)methyl]benzonitrile]"
4,≥ 6.00,"Cc1ccccc1CN[C@@H]1CN(S(=O)(=O)c2cn(C)cn2)C[C@H]1c1ccc(F)cc1 (relative stereo) [Example 153, trans-4-(4-fluorophenyl)-N-(2-methylbenzyl)-1-[(1-methyl-1H-imidazol-4-yl)sulfonyl]pyrrolidin-3-amine]"
5,≥ 7.00,"Cc1ccc(CN[C@@H]2CN(S(=O)(=O)c3cn(C)cn3)C[C@H]2c2ccc(F)cc2)cc1 (relative stereo) [Example 155, trans-4-(4-fluorophenyl)-N-(4-methylbenzyl)-1-[(1-methyl-1H-imidazol-4-yl)sulfonyl]pyrrolidin-3-amine]"
6,≥ 7.00,"Cn1cnc(S(=O)(=O)N2C[C@@H](NCc3ccc(F)cc3)[C@H](c3ccc(F)cc3)C2)c1 (relative stereo) [Example 156, trans-N-(4-fluorobenzyl)-4-(4-fluorophenyl)-1-[(1-methyl-1H-imidazol-4-yl)sulfonyl]pyrrolidin-3-amine]"
7,≥ 6.00,"Cn1cnc(S(=O)(=O)N2C[C@@H](Nc3ccc(Cl)c(F)c3)[C@H](c3ccc(F)cc3)C2)c1 (relative stereo) [Example 162, trans-N-(4-chloro-3-fluorophenyl)-4-(4-fluorophenyl)-1-[(1-methyl-1H-imidazol-4-yl)sulfonyl]pyrrolidin-3-amine]"
8,≥ 5.00,"Cn1cnc(S(=O)(=O)N2C[C@@H](Nc3cc(F)ccc3F)[C@H](c3ccc(F)cc3)C2)c1 (relative stereo) [Example 164, trans-N-(2,5-difluorophenyl)-4-(4-fluorophenyl)-1-[(1-methyl-1H-imidazol-4-yl)sulfonyl]pyrrolidin-3-amine]"
9,≥ 6.00,"Cn1cnc(S(=O)(=O)N2C[C@@H](Nc3ccc(F)cc3F)[C@H](c3ccc(F)cc3)C2)c1 (relative stereo) [Example 165, trans-N-(2,4-difluorophenyl)-4-(4-fluorophenyl)-1-[(1-methyl-1H-imidazol-4-yl)sulfonyl]pyrrolidin-3-amine]"

# The next lines start with the compound.
row,Compound,pKi
1,"Cn1cnc(S(=O)(=O)N2C[C@@H](NCc3cccc(C(F)(F)F)c3Cl)[C@H](c3ccc(F)cc3)C2)c1 (relative stereo) [Example 149, trans-N-[2-chloro-3-(trifluoromethyl)benzyl]-4-(4-fluorophenyl)-1-[(1-methyl-1H-imidazol-4-yl)sulfonyl]pyrrolidin-3-amine]",≥ 7.00
2,"Cn1cnc(S(=O)(=O)N2C[C@@H](NCc3ccc(C(F)(F)F)cc3Cl)[C@H](c3ccc(F)cc3)C2)c1 (relative stereo) [Example 150, trans-N-[2-chloro-4-(trifluoromethyl)benzyl]-4-(4-fluorophenyl)-1-[(1-methyl-1H-imidazol-4-yl)sulfonyl]pyrrolidin-3-amine]",≥ 9.00
3,"Cn1cnc(S(=O)(=O)N2C[C@H](c3ccccc3)[C@H](NCc3ccccc3)C2)c1 (relative stereo) [Example 157, (cis)-N-benzyl-1-[(1-methyl-1H-imidazol-4-yl)sulfonyl]-4-phenylpyrrolidin-3-amine]",≥ 5.00
4,"Cn1cnc(S(=O)(=O)N2C[C@@H](Nc3ccc(F)c(F)c3)[C@H](c3ccc(F)cc3)C2)c1 (relative stereo) [Example 158, trans-N-(3,4-difluorophenyl)-4-(4-fluorophenyl)-1-[(1-methyl-1H-imidazol-4-yl)sulfonyl]pyrrolidin-3-amine]",≥ 7.00
5,"Cn1cnc(S(=O)(=O)N2C[C@@H](Nc3ccc(F)c(Cl)c3)[C@H](c3ccc(F)cc3)C2)c1 (relative stereo) [Example 160, trans-N-(3-chloro-4-fluorophenyl)-4-(4-fluorophenyl)-1-[(1-methyl-1H-imidazol-4-yl)sulfonyl]pyrrolidin-3-amine]",≥ 8.00
6,"Cn1cnc(S(=O)(=O)N2C[C@@H](Nc3ccc(Cl)c(Cl)c3)[C@H](c3ccc(F)cc3)C2)c1 (relative stereo) [Example 161, trans-N-(3,4-dichlorophenyl)-4-(4-fluorophenyl)-1-[(1-methyl-1H-imidazol-4-yl)sulfonyl]pyrrolidin-3-amine]",≥ 6.00
7,"Cn1cnc(S(=O)(=O)N2C[C@@H](Nc3cccc(F)c3F)[C@H](c3ccc(F)cc3)C2)c1 (relative stereo) [Example 163, trans-N-(2,3-difluorophenyl)-4-(4-fluorophenyl)-1-[(1-methyl-1H-imidazol-4-yl)sulfonyl]pyrrolidin-3-amine]",≥ 6.00
8,"Cn1cnc(S(=O)(=O)N2C[C@@H](Nc3ccc(F)c(F)c3F)[C@H](c3ccc(F)cc3)C2)c1 (relative stereo) [Example 166, trans-4-(4-fluorophenyl)-1-[(1-methyl-1H-imidazol-4-yl)sulfonyl]-N-(2,3,4-trifluorophenyl)pyrrolidin-3-amine]",≥ 6.00
9,"Cn1cnc(S(=O)(=O)N2C[C@@H](Nc3cccc(C(F)(F)F)c3F)[C@H](c3ccc(F)cc3)C2)c1 (relative stereo) [Example 167, trans-4-(4-fluorophenyl)-N-[2-fluoro-3-(trifluoromethyl)phenyl]-1-[(1-methyl-1H-imidazol-4-yl)sulfonyl]pyrrolidin-3-amine]",≥ 7.00
10,"Cn1cnc(S(=O)(=O)N2C[C@@H](Nc3cc(F)cc(C(F)(F)F)c3)[C@H](c3ccc(F)cc3)C2)c1 (relative stereo) [Example 168, trans-4-(4-fluorophenyl)-N-[3-fluoro-5-(trifluoromethyl)phenyl]-1-[(1-methyl-1H-imidazol-4-yl)sulfonyl]pyrrolidin-3-amine]",≥ 7.00
11,"Cn1cnc(S(=O)(=O)N2C[C@@H](Nc3cc(C(F)(F)F)ccc3F)[C@H](c3ccc(F)cc3)C2)c1 (relative stereo) [Example 169, trans-4-(4-fluorophenyl)-N-[2-fluoro-5-(trifluoromethyl)phenyl]-1-[(1-methyl-1H-imidazol-4-yl)sulfonyl]pyrrolidin-3-amine]",≥ 5.00
12,"CC(C)c1cccc(N[C@@H]2CN(S(=O)(=O)c3cn(C)cn3)C[C@H]2c2ccc(F)cc2)c1 (relative stereo) [Example 170, trans-4-(4-fluorophenyl)-1-[(1-methyl-1H-imidazol-4-yl)sulfonyl]-N-[3-(propan-2-yl)phenyl]pyrrolidin-3-amine]",≥ 7.00
13,"Cn1cnc(S(=O)(=O)N2C[C@@H](Nc3cccc(C(C)(C)C)c3)[C@H](c3ccc(F)cc3)C2)c1 (relative stereo) [Example 171, trans-N-(3-tert-butylphenyl)-4-(4-fluorophenyl)-1-[(1-methyl-1H-imidazol-4-yl)sulfonyl]pyrrolidin-3-amine]",≥ 7.00
14,"Cn1cnc(S(=O)(=O)N2C[C@@H](Nc3ccc(Cl)c(C(F)(F)F)c3)[C@H](c3ccc(F)cc3)C2)c1 (relative stereo) [Example 172, trans-N-[4-chloro-3-(trifluoromethyl)phenyl]-4-(4-fluorophenyl)-1-[(1-methyl-1H-imidazol-4-yl)sulfonyl]pyrrolidin-3-amine]",≥ 7.00
15,"Cn1cnc(S(=O)(=O)N2C[C@@H](Nc3ccc(C(F)(F)F)c(Cl)c3)[C@H](c3ccc(F)cc3)C2)c1 (relative stereo) [Example 173, trans-N-[3-chloro-4-(trifluoromethyl)phenyl]-4-(4-fluorophenyl)-1-[(1-methyl-1H-imidazol-4-yl)sulfonyl]pyrrolidin-3-amine]",≥ 6.00
16,"Cn1cnc(S(=O)(=O)N2C[C@@H](Nc3cc(F)cc(Cl)c3)[C@H](c3ccc(F)cc3)C2)c1 (relative stereo) [Example 174, trans-N-(3-chloro-5-fluorophenyl)-4-(4-fluorophenyl)-1-[(1-methyl-1H-imidazol-4-yl)sulfonyl]pyrrolidin-3-amine]",≥ 6.00
17,"Cn1cnc(S(=O)(=O)N2C[C@@H](Nc3cc(F)c(F)c(Cl)c3)[C@H](c3ccc(F)cc3)C2)c1 (relative stereo) [Example 175, trans-N-(3-chloro-4,5-difluorophenyl)-4-(4-fluorophenyl)-1-[(1-methyl-1H-imidazol-4-yl)sulfonyl]pyrrolidin-3-amine]",≥ 6.00
